Data as given in patent publication US11266624B2, “CRM1 inhibitors reduce primary and acquired resistance of EGFR inhibitors in lung cancer cells” (Texas Tech University System, priority 2018, dated 2022).
Where two headings read alike, the source gives them in different places. Marks after values point to notes of the source that are not given here.

Tests used:
A549 [1] = conditions: A549, KRAS-mutant NSCLC cell line; cited from earlier work
NSCLC cells [2] = conditions: cited from earlier work
NSCLC cells [3] = conditions: cited from earlier work; remark: listed apart in the source
[4] = tested on: snail-transduced primary human mammary epithelial cells (HEMCs); conditions: 24-72 hrs treatment; cited from earlier work
A549 [5] = test: Analysis of cell cycle by flow cytometry in A549; assay type: cell-based, human; conditions: 48 hrs
From the text: Analysis of cell cycle by flow cytometry. […] Each sample was run in triplicate and each experiment was repeated three times.

A549GLR = test: cells
From the text: (§1) Cell lines and reagents. The NSCLC cell lines A549 and H460 were purchased from American Type Culture Collection (ATCC).
(§2) Cell viability assay. […] Experiments were repeated independently three times.
(§3) Statistical analyses. […] One-way ANOVA was used to determine the difference in the analytical results of flow cytometry, qRT-PCR, Western bot, wound healing assay, anchorage-independent growth assay, transwell invasion assay, and Bio-Plex multiplex immunoassay among groups followed by a Fisher's LSD test. Differences with p<0.05 were considered statistically significant.

A549GR = test: cells
From the text: as §1, §2, §3

A549 [6] = test: cells
From the text: as §1, §2, §3

A549 [7] = conditions: A549 (p53 wide type), 48 hrs; read-out: LMB IC50; cited from earlier work
[8] = single therapeutic agent; cited from earlier work
H460 = test: MTT cell viability assay in H460; conditions: 0.5 nM LMB
From the text: as §1, §2, §3

H522 = H522 (p53-mutant); read-out: LMB IC50; cited from earlier work
H358 = H358 (p53 null); read-out: LMB IC50; cited from earlier work
A549 [9] = test: Western blot of EGFR signaling and survival pathways in A549; assay type: cell-based, human
Protocol: Western blot analyses. […] Relative densitometric digital analysis for bands of targeted proteins was determined using Image J and normalized by the intensity of the housekeeping gene, α-tubulin.

[10] = tested on: NSCLC cell lines (A549, H522, and H358) and BEAS-2B; conditions: A549, H522, H358 vs BEAS-2B; cited from earlier work
[11] = Homo sapiens, A549, read-out: IC50 of afatinib
[12] = 12 μM gefitinib (alone or + 0.5 nM LMB)
[13] = 24 μM gefitinib (alone or + 0.5 nM LMB)

## COc1cc(-c2ncn(/C=C\C(=O)OC(C)C)n2)cc(C(F)(F)F)c1 [KPT-185]
A549 [1]
  Response of A549 to treatment: not responsive
NSCLC cells [2]
  Synergistic cytotoxic effects with EGFR TKIs: no synergistic cytotoxic effects
NSCLC cells [3]
  Cell cycle arrest: arrested NSCLC cells in the G1 phase
[4]
  Effect on EMT: reverse EMT

## O=C(/C=C\n1cnc(-c2cc(C(F)(F)F)cc(C(F)(F)F)c2)n1)NNc1cnccn1 [KPT-330, Selinexor]
A549 [1]
  Response of A549 to treatment: not responsive
[4]
  Effect on EMT: reverse EMT

## CCC(=C/[C@H](C)C/C=C/C(C)=C/[C@@H](C)C(=O)[C@@H](C)[C@H](O)[C@@H](C)C/C(C)=C/C(=O)O)/C=C/[C@@H]1OC(=O)C=C[C@@H]1C [LMB, Leptomycin B]
A549 [5]; 0.5 nM LMB alone
  Cell cycle (%) G0/G1: 57.9 ± 3.1 ^b %
  Cell cycle (%) G2/M: 24.4 ± 0.6 ^b %
  Cell cycle (%) Pre-G1: 13.5 ± 2.7 ^b %
  Cell cycle (%) S: 3.6 ± 1.2 ^b %
A549GLR
  Cytotoxic effect (cell viability): 88±5 % of control
A549GR
  Cytotoxic effect (cell viability): 96±3 % of control
A549 [6]
  Cytotoxic effect (cell viability): 89±4 % of control
A549 [7]
  IC50: 0.0131 µM
[8]
  Toxicities in phase I trial: gastrointestinal toxicities like malaise and anorexia
H460
  Cytotoxic effect (cell viability): 92±5 % of control
H522
  IC50: 0.0057 µM
[4]
  Effect on EMT: reverse EMT
H358
  IC50: 0.0005 µM
A549 [9]; 0.5 nM LMB alone, 48 hrs, A549, control 100.0±0
  Relative protein expression level of Akt: 86±2
A549 [9]; A549, 48 hrs, LMB vs control, gefitinib+LMB vs gefitinib alone
  p21 expression: dramatically increased
[10]
  Cell growth inhibition, cancer vs normal cells: remarkable cell growth inhibition in NSCLC cell lines (A549, H522, and H358) but not normal human lung epithelial cells (BEAS-2B)

## CN(C)C/C=C/C(=O)Nc1cc2c(Nc3ccc(F)c(Cl)c3)ncnc2cc1O[C@H]1CCOC1 [afatinib]
A549GLR; [11]
  IC50: 8 ± 1.5 µM
A549GR; [11]
  IC50: 20 ± 2.7 µM
A549 [6]; [11]
  IC50: 6 ± 1.2 µM

## COc1cc2ncnc(Nc3ccc(F)c(Cl)c3)c2cc1OCCCN1CCOCC1 [gefitinib]
A549 [5]; [12]
  Cell cycle (%) G0/G1: 68.0 ± 2.9 ^a %
  Cell cycle (%) G2/M: 19.9 ± 2.2 ^a %
  Cell cycle (%) Pre-G1: 2.1 ± 0.4 ^a %
  Cell cycle (%) S: 9.7 ± 2.4 ^a %
A549 [5]; [13]
  Cell cycle (%) G0/G1: 84.0 ± 0.9 ^b %
  Cell cycle (%) G2/M: 7.9 ± 0.6 ^b %
  Cell cycle (%) Pre-G1: 4.0 ± 1.3 ^b %
  Cell cycle (%) S: 3.4 ± 0.3 ^b %
